In article doi:10.1101/2025.03.20.644389, “In vivo validation of the palmitoylation cycle as a therapeutic target in NRAS-mutant cancer” (bioRxiv, 2025) one finds IC50 data, which are given here for one substance.

In general, IC50 refers to the concentration needed to halve the response being measured. Read a low IC50 as inhibition by little substance.

In the test the target is T1, ABHD17B (Homo sapiens, UniProt Q5VST6).
T1 construct: hABHD17B recombinantly expressed in HEK293T cells (membrane proteome)
T1 sequence (Q5VST6 1-288): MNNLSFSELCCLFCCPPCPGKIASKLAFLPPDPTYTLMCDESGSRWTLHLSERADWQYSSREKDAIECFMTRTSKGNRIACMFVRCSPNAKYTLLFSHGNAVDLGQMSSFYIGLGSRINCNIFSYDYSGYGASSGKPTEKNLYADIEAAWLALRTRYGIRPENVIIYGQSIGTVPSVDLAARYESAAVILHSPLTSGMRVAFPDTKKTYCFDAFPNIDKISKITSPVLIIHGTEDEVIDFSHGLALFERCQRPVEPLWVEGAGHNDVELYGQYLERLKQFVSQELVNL
Kind of test: competitive gel-based ABPP with FP-Rh in transfected HEK293T membrane proteome. The format is biochemical.

As to ABD778, the IC50 came to 76 nM. This lies in the double-digit nanomolar range.
